According to paper PMC6332026, “Synthesis and Pharmacochemistry of New Pleiotropic Pyrrolyl Derivatives” (Molecules, 2015):

Assays:
[1] = target: COX-1 (Homo sapiens, UniProt P23219); experiment: Inhibition of COX-1 (preliminary results); type: biochemical
Description: More experiments are in progress to delineate accurately the inhibition profile.

[2] = target: T1, interleukin-6 (IL-6) (Mus musculus, UniProt P08505); experiment: Inhibition of interleukin-6 (immunometric double antibody sandwich EIA); type: biochemical; conditions: compound 10 μM
T1 construct: purchased Cayman Item No. 583371
T1 sequence (P08505 25-211): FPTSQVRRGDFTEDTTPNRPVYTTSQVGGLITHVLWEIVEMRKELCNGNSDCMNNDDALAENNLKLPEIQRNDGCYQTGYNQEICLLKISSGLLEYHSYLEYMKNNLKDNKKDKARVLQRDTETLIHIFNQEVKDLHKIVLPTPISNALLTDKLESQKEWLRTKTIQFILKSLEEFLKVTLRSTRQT
Method: The assay used for the inhibition of IL-6 is based on an immunometric double antibody method (sandwich technique). […] Both compounds gave satisfactory biological responses, both in high and in low concentrations of IL-6 (Table 8).
The method was based on an immunometric double antibody sandwich technique. Each well of the microwell plate was coated with a specific for mouse IL-6 rat monoclonal antibody. Tested compounds at 10 μΜ and standards were incubated in the wells, and after rinsing, a second monoclonal antibody was added, which was conjugated with biotin and detected the captured IL-6. The recognition of double antibody sandwiches was done with HRP-conjugated streptavidin. The concentration of IL-6 was determined by measuring the enzymatic activity of HRP using the chromogenic substrate TMB (3,3′,5,5′-tetramethylbenzidine). The absorbance of the reaction product was measured at 450 nm, and the intensity of the color was directly proportional to the amount of bound HRP-streptavidin conjugate, which was proportional to the concentration of IL-6.

[3] = Interaction with the stable free radical DPPH (reducing activity); conditions: 1000 μM compound, DPPH 50 μM
Method: 2,2-Diphenyl-1-picrylhydrazyl (DPPH) is a lipophilic, free, stable radical, which absorbs at 517 nm (violet color). Upon reduction, decolorization is observed that is stoichiometric to the number of received electrons and is representative of the antioxidant ability of compounds. […] This interaction, which indicates their radical scavenging ability in an iron-free system, was measured at 100 and 1000 μM after 20 and 60 min, whereas the final concentration of DPPH was stable at 50 μΜ.
[…] The absorbance was measured at 517 nm after 20 and 60 min at room temperature.

Chain of COX-1 (P23219 24-599): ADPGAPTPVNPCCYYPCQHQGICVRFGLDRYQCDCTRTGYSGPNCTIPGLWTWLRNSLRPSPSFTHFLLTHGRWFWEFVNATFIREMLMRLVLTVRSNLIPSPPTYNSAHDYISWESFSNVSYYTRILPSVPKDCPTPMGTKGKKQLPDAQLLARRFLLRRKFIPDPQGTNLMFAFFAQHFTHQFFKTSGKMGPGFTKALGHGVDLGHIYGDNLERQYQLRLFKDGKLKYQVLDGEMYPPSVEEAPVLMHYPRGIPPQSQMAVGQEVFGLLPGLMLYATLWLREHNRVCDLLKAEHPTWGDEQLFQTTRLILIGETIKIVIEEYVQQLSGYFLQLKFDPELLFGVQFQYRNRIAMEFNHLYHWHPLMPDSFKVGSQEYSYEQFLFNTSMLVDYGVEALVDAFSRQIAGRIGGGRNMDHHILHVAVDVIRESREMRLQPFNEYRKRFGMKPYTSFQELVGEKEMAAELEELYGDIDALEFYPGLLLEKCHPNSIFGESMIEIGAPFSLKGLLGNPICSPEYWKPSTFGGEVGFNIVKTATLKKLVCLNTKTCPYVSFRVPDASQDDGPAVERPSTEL

inhibition at 10 µM ([2]; IL-6 187.5 pg/mL) [%]	Compound	inhibition at 100 µM [1] [%]	inhibition at 10 µM ([2]; IL-6 375.0 pg/mL) [%]	inhibition at 10 µM ([2]; IL-6 750.0 pg/mL) [%]	inhibition at 10 µM ([2]; IL-6 1500 pg/mL) [%]	RA % (interaction with DPPH) ([3]; 20 min) [%]	RA % (interaction with DPPH) ([3]; 60 min) [%]
–	O=C(c1ccc(Cl)cc1)c1c[nH]cc1-c1cccc2ccccc12 [Compound 2v, (4-Chlorophenyl)[4-(naphth-1-yl)-1H-pyrrol-3-yl]methanone]	75	99	99	100	–	–
–	O=C(c1cccs1)c1c[nH]cc1-c1ccc(OCc2ccc(Br)cc2)cc1 [Compound 2iii, (4-{4-[(4-Bromobenzyl)oxy]phenyl}-1H-pyrrol-3-yl)(thien-2-yl)methanone]	75	–	–	–	4	5
99	O=C(c1cccs1)c1c[nH]cc1-c1cccc(Oc2ccccc2)c1 [Compound 2i, [4-(3-Phenoxyphenyl)-1H-pyrrol-3-yl](thien-2-yl)methanone]	–	99	98	99	–	–
–	O=C(c1ccccc1)c1c[nH]cc1-c1cccc2ccccc12 [Compound 2iv, [4-(Naphth-1-yl)-1H-pyrrol-3-yl](phenyl)methanone]	–	–	–	–	8	10
